Reference: US9051310B2, “Nicotinamide derivative or salt thereof” (FUJIFILM Corporation, priority 2011, dated 2015)

Columns and labels:
[1] = tested on: THP-1 cells (TNFα secretion on human IgG-coated plate); assay: TNFα generation assay; assay type: cell-based; details: IFN-γ differentiated THP-1 cells, 7 hours, AlphaLISA, read-out: IC50 of TNFα generation inhibitory activity
Experimental: THP-1 cells (2×10^5 cells/ml), which were human monocytoid cells, were cultured in the presence of 10 ng/ml IFN-γ (Roche) for 2 days, and they were induced to differentiate into macrophage-like cells. The differentiation-induced THP-1 cells were recovered, and the cells (1×10^6 cell/ml) were then allowed to react with a predetermined concentration of test compound at room temperature for 30 minutes. On the other hand, 100 μl of human IgG (10 μg/ml, SIGMA-ALDRICH) diluted with PBS was added to a 96-well plate, and it was then incubated at room temperature overnight. Thereafter, the resultant was washed with PBS twice to produce a human IgG-coated plate. A cell fluid that contained a compound was plated on the obtained human IgG-coated plate (5×10^4 cells/well), and it was then cultured for 7 hours. Thereafter, the cultured solution was recovered, and the amount of TNFα secreted into the culture solution was then measured by the AlphaLISA method (PerkinElmer).

[2] = molecular target: T1, glutathione S-transferase (GST)-linked full-length human Syk protein (Homo sapiens, UniProt P43405); assay: Syk enzyme assay; assay type: biochemical; details: 0.83 nM Syk, time-resolved fluorescence; read-out: IC50 of Syk-inhibitory activity
T1 construct: glutathione S-transferase (GST)-linked full-length human Syk protein; purchased Carna Biosciences; host or cells: Baculovirus expression system
In short: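 Phosphotyrosine on a biotin-peptide substrate (0.5 μM) was read by time-resolved fluorescence at 615 and 665 nm with Eu-anti-pTyr antibody and APC-streptavidin after 1 h EDTA stop.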

SMILES | IC50 [1] [nM] | IC50 [2] [nM]
C[C@H](N)[C@H](Nc1nc(Nc2cccc(-n3ccnn3)c2)c(C(N)=O)cc1F)C1CC1 [Example 2-480, 2-((3-(1H-1,2,3-triazol-1-yl)phenyl)amino)-6-(((1R,2S)-2-amino-1-cyclopropylpropyl)amino)-5-fluoronicotinamide] | 65 to 130 | < 10
Cc1ncc(Nc2nc(N[C@H](c3ccc(F)cc3)[C@H](C)N)c(F)cc2C(N)=O)cc1-n1nccn1 [Example 2-32, 6-(((1R,2S)-2-amino-1-(4-fluorophenyl)propyl)amino)-5-fluoro-2-((6-methyl-5-(2H-1,2,3-triazol-2-yl)pyridin-3-yl)ammo)nicotinamide] | 130 to 200 | < 10
CC[C@H](N)[C@@H](C)Nc1nc(Nc2ccc3c(c2)c(OC)nn3CCOC)c(C(N)=O)cc1F [Example 2-129, 6-(((2R,3S)-3-aminopentan-2-yl)amino)-5-fluoro-2-((3-methoxy-1-(2-methoxyethyl)-1H-indazol-5-yl)amino)nicotinamide] | 130 to 200 | 10 to 50
CC[C@@H](Nc1nc(Nc2cc(F)c3c(c2)c(N(C)C)nn3C)c(C(N)=O)cc1F)[C@H](C)N [Example 2-186, 6-(((2S,3R)-2-aminopentan-3-yl)amino)-2-((3-(dimethylamino)-7-fluoro-1-methyl-1H-indazol-5-yl)amino)-5-fluoronicotinamide] | 65 to 130 | < 10
CC[C@H](N)[C@@H](C)Nc1nc(Nc2ccnc(OCCOC)c2)c(C(N)=O)cc1F [Example 2-42, 6(((2R,3S)-3-aminopentan-2-yl)amino)-5-2-((2-(2-methoxyethoxy)pyridin-4-yl)amino)nicotinamide] | 65 to 130 | 10 to 50
COc1nn(C)c2ccc(Nc3nc(N[C@@H](CN)CC(C)C)c(F)cc3C(N)=O)cc12 [Example 2-78, (R)-6-((1-amino-4-methylpentan-2-yl)amino)-5-fluoro-2-((3-methoxy-1-methyl-1H-indazol-5-yl)amino)nicotinamide] | 65 to 130 | < 10
Cc1nn(C)c2ncc(Nc3nc(N[C@H](C4CC4)[C@H](C)N)c(F)cc3C(N)=O)cc12 [Example 2-243, 6-(((1R,2S)-2-amino-1-cyclopropylpropyl)amino)-2-((1,3-dimethyl-1H-pyrazolo[3,4-b]pyridin-5-yl)amino)-5-fluoronicotinamide] | 130 to 200 | 10 to 50
CCCC[C@@H](Nc1nc(Nc2cnc(C)c(C)c2)c(C(N)=O)cc1F)[C@H](C)N [Example 2-19, 6-(((2S,3R)-2-aminoheptan-3-yl)amino)-2-((5,6-dimethylpyridin-3-yl)amino)-5-fluoronicotinamide] | 130 to 200 | < 10
C[C@H](N)[C@H](Nc1nc(Nc2cnc(N3CCOCC3)c(F)c2)c(C(N)=O)cc1F)c1cccs1 [Example 2-508, 6-(((1S,2S)-2-amino-1-(thiophen-2-yl)propyl)amino)-5-fluoro-2-((5-fluoro-6-morpholinopyridin-3-yl)amino)nicotinamide] | 65 to 130 | < 10
CC[C@H](N)[C@H](Nc1nc(Nc2cccc3c2cnn3C)c(C(N)=O)cc1F)C1CC1 [Example 2-546, 6-(((1R,2S)-2-amino-1-cyclopropylbutyl)amino)-5-fluoro-2-((1-methyl-1H-indazol-4-yl)amino)nicotinamide] | 130 to 200 | < 10
CC[C@@H](Nc1nc(Nc2cncc(-n3cc(C)cn3)c2)c(C(N)=O)cc1F)[C@H](C)N [Example 2-521, 6-(((2S,3R)-2-aminopentan-3-yl)amino)-5-fluoro-2-((5-(4-methyl-1H-pyrazol-1-yl)pyridin-3-yl)amino)nicotinamide] | 65 to 130 | 10 to 50

Now from value to molecule:

IC50 [1] [nM] | IC50 [2] [nM] | SMILES
130 to 200 | < 10 | CCn1ncc2c(Nc3nc(N[C@@H]4CCOC[C@@H]4N)c(F)cc3C(N)=O)cc(F)cc21 [Example 2-370, 6-(((3R,4R)-3-aminotetrahydro-2H-pyran-4-yl)amino)-2-((1-ethyl-6-fluoro-1H-indazol-4-yl)amino)-5-fluoronicotinamide]
130 to 200 | < 10 | CCn1nc(OC)c2cc(Nc3nc(N[C@H](C4CC4)[C@H](C)N)c(F)cc3C(N)=O)ccc21 [Example 2-73, 6-(((1R,2S)-2-amino-1-cyclopropylpropyl)amino)-2-((1-ethyl-3-methoxy-1H-indazol-5-yl)amino)-5-fluoronicotinamide]
< 65 | < 10 | Cc1cnn(-c2cncc(Nc3nc(N[C@@H]4CCCC[C@@H]4N)c(F)cc3C(N)=O)c2)c1 [Example 2-472, 6-(((1R,2S)-2-aminocyclohexyl)amino)-5-fluoro-2-((5-(4-methyl-1H-pyrazol-1-yl)pyridin-3-yl)amino)nicotinamide]
65 to 130 | < 10 | NC(=O)c1cc(F)c(N[C@@H]2CCCC[C@@H]2N)nc1Nc1cccc2c1cnn2CC(F)F [Example 2-20, 6-(((1R,2S)-2-aminocyclohexyl)amino)-2-((1-(2,2-difluoroethyl)-1H-indazol-4-yl)amino)-5-fluoronicotinamide]
65 to 130 | < 10 | COc1nn(C)c2ncc(Nc3nc(N[C@@H]4CCCC[C@@H]4N)c(F)cc3C(N)=O)cc12 [Example 2-249, 6-(((1R,2S)-2-aminocyclohexyl)amino)-5-fluoro-2-((3-methoxy-1-methyl-1H-pyrazolo[3,4-b]pyridin-5-yl)amino)nicotinamide]
< 65 | < 10 | Cc1nn(C)c2ccc(Nc3nc(N[C@@H]4CCOC[C@@H]4N)c(F)cc3C(N)=O)cc12 [Example 2-208, 6-(((3R,4R)-3-aminotetrahydro-2H-pyran-4-yl)amino)-2-((1,3-dimethyl-1H-indazol-5-yl)amino)-5-fluoronicotinamide]
130 to 200 | < 10 | COc1nn(C)c2ccc(Nc3nc(N[C@@H](CN)CC4CC4)c(F)cc3C(N)=O)cc12 [Example 2-79, (R)-6-((1-amino-3-cyclopropylpropan-2-yl)amino)-5-fluoro-2-((3-methoxy-1-methyl-1H-indazol-5-yl)amino)nicotinamide]
65 to 130 | < 10 | Cc1ccc(Nc2nc(N[C@H](C3CC3)[C@H](C)N)c(F)cc2C(N)=O)cc1C [Example 2-481, 6-(((1R,2S)-2-amino-1-cyclopropylpropyl)amino)-2-((3,4-dimethylphenyl)amino)-5-fluoronicotinamide]
65 to 130 | < 10 | CC(=O)c1cc(Nc2nc(N[C@@H]3CCCC[C@@H]3N)c(F)cc2C(N)=O)cnc1C [Example 2-518, 2-((5-acetyl-6-methylpyridin-3-yl)amino)-6-(((1R,2S)-2-aminocyclohexyl)amino)-5-fluoronicotinamide]
65 to 130 | < 10 | NC(=O)c1cc(F)c(N[C@@H]2CCCC[C@@H]2N)nc1Nc1cccc(-n2nccn2)c1 [Example 2-437, 2-((3-(2H-1,2,3-triazol-2-yl)phenyl)amino)-6-(((1R,2S)-2-aminocyclohexyl)amino)-5-fluoronicotinamide]
130 to 200 | < 10 | Cc1ccc(Nc2nc(N[C@@H]3CCCC[C@@H]3N)c(F)cc2C(N)=O)cc1C [Example 2-436, 6-(((1R,2S)-2-aminocyclohexyl)amino)-2-((3,4-dimethylphenyl)amino)-5-fluoronicotinamide]
